The experiment has as its system TIGIT. The experiment can be described thus: Flow cytometry of TIGIT and other receptors on NK cells. The format is cell-based, human. The following applies: cultured overnight; IL-15 10 ng/mL alone, or additional anti-CD16 1 μg/mL. Here is the method:
FIG. 11A. Purified NK cells from healthy blood donors were cultured before staining in the absence or presence of IL-15 (10 ng/mL) alone or with the additional stimulation of IL-12 (10 ng/mL) and IL-18 (100 ng/mL) for 18 hours or with stimulation with anti-CD16 (1 μg/mL) for 6 hours. One of four independent experiments is shown. NK cells were cultured with autologous MDSCs or freshly isolated monocytes at a 2:1 ratio in presence of IL-15 (10 ng/mL) for 5 days. Cells were stimulated with anti-CD16 six hours prior to analysis. Representative histograms for DNAM-1 (FIG. 11B) and TIGIT expression (FIG. 11C) and aggregate data for TIGIT expression (n=8) are shown as mean fluorescence intensity (MFI)±SEM. Two-Way ANOVA was used for statistical analysis. FIG. 11D. NK cells before and after co-culture with monocytes or MDSC were analyzed for co-expression of DNAM-1 and TIGIT. Representative data is shown of 3 independent experiments and 7 replicates. […]
Purified NK cells or MDS PBMC (FIG. 17) cultured with monocytes or MDSCs for different time points and with different stimuli were resuspended in staining buffer (PBS containing 0.5% human AB serum) and stained with fluorochrome-conjugated antibodies (Table IV). […] All cells were acquired by LSRII and analyzed by FlowJo. […]
Background: In flow cytometry, cells or beads pass a laser one at a time.

The text below walks through data of patent US12054744B2, “NK cells exhibiting an adaptive phenotype and methods for preparing and for using” (Regents of the University of Minnesota, priority 2015, dated 2024).

Regarding “IL-15: cytokine in culture medium, low-dose 1 ng/mL or high-dose 10 ng/mL”, the “TIGIT expression on purified NK cells” value is listed as “slighted upregulated”.
